Data from patent publication US7563592B2, “Alizarin-based chromogenic substrates, their uses and composition containing same” (Biomerieux, S.A., priority 1999, dated 2009).

How the values were obtained:
Format in all cases: cell-based
Klebsiella oxytoca = experiment: β-galactosidase detection on semi-solid medium, clinical and environmental strains (Example 2); conditions: 50 mg/l + iron citrate 500 mg/l; 18 hours; 13 strains tested
Klebsiella pneumoniae = experiment: as above; conditions: 50 mg/l + iron citrate 500 mg/l; 18 hours; 19 strains tested
Serratia spp. = experiment: as above; conditions: 50 mg/l + iron citrate 500 mg/l; 18 hours; 14 strains tested
[1] = test system: Yersinia pseudotuberculosis; conditions: 50 mg/l + iron citrate 500 mg/l; 18 hours; 3 strains tested
Listeria grayi 078 = experiment: Effect of metal salts on the color of the marker part, substrate 50 mg/l in Columbia medium (Example 3)
Protocol: (§1) To the Columbia-base medium (46.37 g/l) supplemented with Alizarin-2-β-D-glucoside (50 mg/l), were added either Manganese chloride, Ammoniacal iron citrate, Tin chloride, or Aluminum sulfate, all at a concentration of 50 mg/l. A control medium with no metal salts was tested in parallel. After autoclaving, these various media were all used to prepare Petri dishes (20 ml per plate). […] It should be pointed out that intensity readings are in arbitrary units. The only purpose of giving these values is to make it possible to compare one strain with another in this respect. The same is true for the examples which follow. Similarly, the strains tested were taken from the Applicant's collection and the number given represents an internal reference specific to this collection. The same internal numbering system is also used in some of the examples given later on.

Listeria innocua 029 = experiment: as above
Protocol: as §1

Listeria innocua 077 = experiment: as above
Protocol: as §1

Listeria ivanovii 018 = experiment: as above
Protocol: as §1

Listeria ivanovii 020 = experiment: as above
Protocol: as §1

[2] = test system: Listeria monocytogenes 023; experiment: as above
Protocol: as §1

[3] = test system: Enterococcus faecalis 117; experiment: Comparison of glucoside substrates in semi-solid Columbia medium (Example 7); conditions: 0.05 g/l + iron citrate 0.05 g/l
[4] = Manganese chloride 50 mg/l, 24 H
[5] = Manganese chloride 50 mg/l, 48 H

## O=C1c2ccccc2C(=O)c2c1ccc(O[C@@H]1O[C@H](CO)[C@H](O)[C@H](O)[C@H]1O)c2O [Alizarin-2-β-D-galactoside]
Klebsiella oxytoca
  percentage of positive strains: 100%
Klebsiella pneumoniae
  percentage of positive strains: 100%
Serratia spp.
  percentage of positive strains: 86%
[1]
  percentage of positive strains: 67%

## O=C1c2ccccc2C(=O)c2c1ccc(O[C@@H]1O[C@H](CO)[C@@H](O)[C@H](O)[C@H]1O)c2O [Alizarin-2-β-D-glucoside]
Listeria grayi 078; Aluminum sulfate 50 mg/l, 24 H
  Color: red
  Intensity: 4 arbitrary units
Listeria grayi 078; Aluminum sulfate 50 mg/l, 48 H
  Color: red
  Intensity: 4 arbitrary units
Listeria grayi 078; Control, no metal salt, 24 H
  Color: purple
  Intensity: 2 arbitrary units
Listeria grayi 078; Control, no metal salt, 48 H
  Color: purple
  Intensity: 2.3 arbitrary units
Listeria grayi 078; Iron citrate 50 mg/l, 24 H
  Color: purple
  Intensity: 4 arbitrary units
Listeria grayi 078; Iron citrate 50 mg/l, 48 H
  Color: purple
  Intensity: 4 arbitrary units
Listeria grayi 078; [4]
  Color: purple
  Intensity: 2 arbitrary units
Listeria grayi 078; [5]
  Color: purple
  Intensity: 2 arbitrary units
Listeria grayi 078; Tin chloride 50 mg/l, 24 H
  Color: orange
  Intensity: 3 arbitrary units
Listeria grayi 078; Tin chloride 50 mg/l, 48 H
  Color: orange
  Intensity: 4 arbitrary units
Listeria innocua 029; Aluminum sulfate 50 mg/l, 24 H
  Color: red
  Intensity: 4 arbitrary units
Listeria innocua 029; Aluminum sulfate 50 mg/l, 48 H
  Color: red
  Intensity: 4 arbitrary units
Listeria innocua 029; Control, no metal salt, 24 H
  Color: purple
  Intensity: 2 arbitrary units
Listeria innocua 029; Control, no metal salt, 48 H
  Color: purple
  Intensity: 2.3 arbitrary units
Listeria innocua 029; Iron citrate 50 mg/l, 24 H
  Color: purple
  Intensity: 4 arbitrary units
Listeria innocua 029; Iron citrate 50 mg/l, 48 H
  Color: purple
  Intensity: 4 arbitrary units
Listeria innocua 029; [4]
  Color: purple
  Intensity: 2.3 arbitrary units
Listeria innocua 029; [5]
  Color: purple
  Intensity: 2.3 arbitrary units
Listeria innocua 029; Tin chloride 50 mg/l, 24 H
  Color: orange
  Intensity: 3 arbitrary units
Listeria innocua 029; Tin chloride 50 mg/l, 48 H
  Color: orange
  Intensity: 4 arbitrary units
Listeria innocua 077; Aluminum sulfate 50 mg/l, 24 H
  Color: red
  Intensity: 4 arbitrary units
Listeria innocua 077; Aluminum sulfate 50 mg/l, 48 H
  Color: red
  Intensity: 4 arbitrary units
Listeria innocua 077; Control, no metal salt, 24 H
  Color: purple
  Intensity: 2.3 arbitrary units
Listeria innocua 077; Control, no metal salt, 48 H
  Color: purple
  Intensity: 2.3 arbitrary units
Listeria innocua 077; Iron citrate 50 mg/l, 24 H
  Color: purple
  Intensity: 4 arbitrary units
Listeria innocua 077; Iron citrate 50 mg/l, 48 H
  Color: purple
  Intensity: 4 arbitrary units
Listeria innocua 077; [4]
  Color: purple
  Intensity: 2.3 arbitrary units
Listeria innocua 077; [5]
  Color: purple
  Intensity: 2.3 arbitrary units
Listeria innocua 077; Tin chloride 50 mg/l, 24 H
  Color: orange
  Intensity: 3 arbitrary units
Listeria innocua 077; Tin chloride 50 mg/l, 48 H
  Color: orange
  Intensity: 4 arbitrary units
Listeria ivanovii 018; Aluminum sulfate 50 mg/l, 24 H
  Color: red
  Intensity: 4 arbitrary units
Listeria ivanovii 018; Aluminum sulfate 50 mg/l, 48 H
  Color: red
  Intensity: 4 arbitrary units
Listeria ivanovii 018; Control, no metal salt, 24 H
  Color: purple
  Intensity: 2.3 arbitrary units
Listeria ivanovii 018; Control, no metal salt, 48 H
  Color: purple
  Intensity: 2.3 arbitrary units
Listeria ivanovii 018; Iron citrate 50 mg/l, 24 H
  Color: purple
  Intensity: 4 arbitrary units
Listeria ivanovii 018; Iron citrate 50 mg/l, 48 H
  Color: purple
  Intensity: 4 arbitrary units
Listeria ivanovii 018; [4]
  Color: purple
  Intensity: 2.7 arbitrary units
Listeria ivanovii 018; [5]
  Color: purple
  Intensity: 2.7 arbitrary units
Listeria ivanovii 018; Tin chloride 50 mg/l, 24 H
  Color: orange
  Intensity: 3 arbitrary units
Listeria ivanovii 018; Tin chloride 50 mg/l, 48 H
  Color: orange
  Intensity: 4 arbitrary units
Listeria ivanovii 020; Aluminum sulfate 50 mg/l, 24 H
  Color: red
  Intensity: 4 arbitrary units
Listeria ivanovii 020; Aluminum sulfate 50 mg/l, 48 H
  Color: red
  Intensity: 4 arbitrary units
Listeria ivanovii 020; Control, no metal salt, 24 H
  Color: purple
  Intensity: 2.3 arbitrary units
Listeria ivanovii 020; Control, no metal salt, 48 H
  Color: purple
  Intensity: 2.3 arbitrary units
Listeria ivanovii 020; Iron citrate 50 mg/l, 24 H
  Color: purple
  Intensity: 4 arbitrary units
Listeria ivanovii 020; Iron citrate 50 mg/l, 48 H
  Color: purple
  Intensity: 4 arbitrary units
Listeria ivanovii 020; [4]
  Color: purple
  Intensity: 2.7 arbitrary units
Listeria ivanovii 020; [5]
  Color: purple
  Intensity: 2.7 arbitrary units
Listeria ivanovii 020; Tin chloride 50 mg/l, 24 H
  Color: orange
  Intensity: 3 arbitrary units
Listeria ivanovii 020; Tin chloride 50 mg/l, 48 H
  Color: orange
  Intensity: 4 arbitrary units
[2]; Aluminum sulfate 50 mg/l, 24 H
  Color: red
  Intensity: 4 arbitrary units
[2]; Aluminum sulfate 50 mg/l, 48 H
  Color: red
  Intensity: 4 arbitrary units
[2]; Control, no metal salt, 24 H
  Color: purple
  Intensity: 2 arbitrary units
[2]; Control, no metal salt, 48 H
  Color: purple
  Intensity: 2 arbitrary units
[2]; Iron citrate 50 mg/l, 24 H
  Color: purple
  Intensity: 4 arbitrary units
[2]; Iron citrate 50 mg/l, 48 H
  Color: purple
  Intensity: 4 arbitrary units
[2]; [4]
  Color: purple
  Intensity: 2.7 arbitrary units
[2]; [5]
  Color: purple
  Intensity: 2.7 arbitrary units
[2]; Tin chloride 50 mg/l, 24 H
  Color: orange
  Intensity: 3 arbitrary units
[2]; Tin chloride 50 mg/l, 48 H
  Color: orange
  Intensity: 4 arbitrary units
[3]; 18 H
  Color: Purple
  Intensity: 3.5 arbitrary units
[3]; 24 H
  Color: Purple
  Intensity: 4 arbitrary units
[3]; 48 H
  Color: Purple
  Intensity: 4 arbitrary units
